Results as given in ChEMBL document CHEMBL1136737, “Virtual screening for submicromolar leads of tRNA-guanine transglycosylase based on a new unexpected binding mode detected by crystal structure analysis” (J Med Chem, 2003).

Molecular target: Queuine tRNA-ribosyltransferase (Zymomonas mobilis (strain ATCC 31821 / ZM4 / CP4), UniProt P28720)
Assay: Inhibitory activity against eubacterial tRNA guanine transglycosylase (TGT) from Zymomonas mobilis

Chain of Queuine tRNA-ribosyltransferase (P28720 whole entry): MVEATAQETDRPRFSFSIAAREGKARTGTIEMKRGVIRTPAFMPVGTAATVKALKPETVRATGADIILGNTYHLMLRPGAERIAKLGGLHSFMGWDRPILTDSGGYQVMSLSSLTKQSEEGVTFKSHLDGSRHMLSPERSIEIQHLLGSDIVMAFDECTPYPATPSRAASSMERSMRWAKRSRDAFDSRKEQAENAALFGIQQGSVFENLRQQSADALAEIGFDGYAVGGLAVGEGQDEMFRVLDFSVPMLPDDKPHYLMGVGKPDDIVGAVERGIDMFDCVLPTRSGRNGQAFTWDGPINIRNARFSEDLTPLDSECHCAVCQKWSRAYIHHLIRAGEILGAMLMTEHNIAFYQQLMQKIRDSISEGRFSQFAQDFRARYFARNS

SMILES	Ki
O=c1[nH][nH]c(=O)c2[nH]cnc12	200 µM
NNC(=O)c1cc2cc(F)ccc2[nH]1	72 µM
Nc1c2c(O)nc(O)cc2nn1CCO	8.1 µM
Cc1csc2c(O)c3c(=O)[nH][nH]c(=O)c3nc12	4.7 µM
O=c1[nH][nH]c(=O)c2c(O)c3sccc3nc12	5 µM
Nc1cccc2c(=O)[nH][nH]c(=O)c12	36 µM
Nc1nc2nc(-c3ccccc3)cnc2c(=O)[nH]1	3.8 µM
Nc1nc2nccnc2c(=O)[nH]1 [PTERINE]	0.6 µM
Nc1nc(O)c2[nH]c(N3CCCCC3)nc2n1	37 µM
Cc1cnc2nc(N)nc(O)c2n1	0.25 µM
Nc1[nH]nc2nc(-c3ccccc3)[nH]c(=O)c12	249 µM
Cc1ccc2[nH]c3nnc(N)c-3cc2c1	156 µM
Nc1nc(O)c2[nH]c(SCc3ccc(Cl)cc3)nc2n1	2.7 µM
